According to patent publication US20020111274A1, “1-alkyl-3-[1-(substituted phenyl) benzotriazol-6-yl] uracils” (BASF Aktiengesellschaft, priority 2000, published 2002):

How the values were obtained:
GALAP Galium = assay: Postemergence herbicidal evaluation, GALAP; type: in vivo, Galium aparine; conditions: postemergence spray, rated about two-three weeks after treatment
Summary of the method: (§1)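 Ratings from greenhouse plants scored about two to three weeks after a foliar spray; data from multiple tests averaged. Seedlings about two weeks old received roughly 0.006–0.400 kg/ha active compound in 80/20 acetone/water with 1.0% methylated seed oil.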

AMBEL Ragweed, Common = assay: Preemergence herbicidal evaluation, AMBEL; type: in vivo, Ambrosia artemisifolia, L.; conditions: preemergence
Summary of the method: (§2)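 Seeds mixed with potting soil in cups, then sprayed preemergence with aqueous acetone test solution at about 0.013 to 0.800 kg per hectare equivalent. Cups kept under standard greenhouse care; plants rated on a visual scale four to five weeks after treatment.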

ORYSAT Rice, Tebonnet = assay: Preemergence herbicidal evaluation, ORYSAT; type: in vivo, Oryza sativa, (L.); conditions: preemergence
Summary of the method: as §2

[1] = tested on: CHEAL Lambsquarters, Common; assay: Preemergence herbicidal evaluation, CHEAL; type: in vivo, Chenopodium album, L.; conditions: preemergence
Summary of the method: as §2

SETVI Foxtail, Green = assay: Preemergence herbicidal evaluation, SETVI; type: in vivo, Setaria viridis, (L.) Beau; conditions: preemergence
Summary of the method: as §2

GLXMAW Soybean, Williams = assay: Postemergence herbicidal evaluation, GLXMAW; type: in vivo, Glycine max, (L.) Merr. cv Williams; conditions: postemergence spray, rated about two-three weeks after treatment
Summary of the method: as §1

ECHOG Barnyardgrass = assay: Preemergence herbicidal evaluation, ECHOG; type: in vivo, Echinochloa crus-galli, (L.) Beau; conditions: preemergence
Summary of the method: as §2

[2] = tested on: TRZAWR Wheat, Winter, cv Riband; assay: Preemergence herbicidal evaluation, TRZAWR; type: in vivo, Triticum aestivum; conditions: preemergence
Summary of the method: as §2

[3] = tested on: TRZAWR Wheat, Winter, cv Riband; assay: Postemergence herbicidal evaluation, TRZAWR; type: in vivo, Triticum aestivum; conditions: postemergence spray, rated about two-three weeks after treatment
Summary of the method: as §1

ABUTH Velvetleaf = assay: Postemergence herbicidal evaluation, ABUTH; type: in vivo, Abutilon theophrasti, Medic.; conditions: postemergence spray, rated about two-three weeks after treatment
Summary of the method: as §1

ZEAMX Corn, Field = assay: Postemergence herbicidal evaluation, ZEAMX; type: in vivo, Zea mays, L. (Sammel-Bezeichnung); conditions: postemergence spray, rated about two-three weeks after treatment
Summary of the method: as §1

CASOB Sicklepod = assay: Preemergence herbicidal evaluation, CASOB; type: in vivo, Cassia obtusifolia, L.; conditions: preemergence
Summary of the method: as §2

COC(=O)COc1ccc(C)cc1-n1nnc2cc(F)c(-n3c(=O)cc(C(F)(F)F)n(C)c3=O)cc21 [Example 34]
Postemergence herbicidal rating GALAP (GALAP Galium; 0.008 kg/ha): 0.0
Postemergence herbicidal rating GALAP (GALAP Galium; 0.016 kg/ha): 3.0
Postemergence herbicidal rating GALAP (GALAP Galium; 0.032 kg/ha): 4.0
Postemergence herbicidal rating GALAP (GALAP Galium; 0.062 kg/ha): 4.0
AMBEL herbicidal rating (AMBEL Ragweed, Common; rate 0.016 kg/ha): 1.0
AMBEL herbicidal rating (AMBEL Ragweed, Common; rate 0.032 kg/ha): 5.0
AMBEL herbicidal rating (AMBEL Ragweed, Common; rate 0.062 kg/ha): 6.0
AMBEL herbicidal rating (AMBEL Ragweed, Common; rate 0.125 kg/ha): 8.0
ORYSAT herbicidal rating (ORYSAT Rice, Tebonnet; rate 0.016 kg/ha): 1.0
ORYSAT herbicidal rating (ORYSAT Rice, Tebonnet; rate 0.032 kg/ha): 2.5
ORYSAT herbicidal rating (ORYSAT Rice, Tebonnet; rate 0.062 kg/ha): 3.0
ORYSAT herbicidal rating (ORYSAT Rice, Tebonnet; rate 0.125 kg/ha): 5.0
CHEAL herbicidal rating ([1]; rate 0.016 kg/ha): 9.0
CHEAL herbicidal rating ([1]; rate 0.032 kg/ha): 9.0
CHEAL herbicidal rating ([1]; rate 0.062 kg/ha): 9.0
CHEAL herbicidal rating ([1]; rate 0.125 kg/ha): 9.0
SETVI herbicidal rating (SETVI Foxtail, Green; rate 0.016 kg/ha): 7.0
SETVI herbicidal rating (SETVI Foxtail, Green; rate 0.032 kg/ha): 6.0
SETVI herbicidal rating (SETVI Foxtail, Green; rate 0.062 kg/ha): 9.0
SETVI herbicidal rating (SETVI Foxtail, Green; rate 0.125 kg/ha): 9.0
Postemergence herbicidal rating GLXMAW (GLXMAW Soybean, Williams; 0.008 kg/ha): 5.0
Postemergence herbicidal rating GLXMAW (GLXMAW Soybean, Williams; 0.016 kg/ha): 6.5
Postemergence herbicidal rating GLXMAW (GLXMAW Soybean, Williams; 0.032 kg/ha): 7.0
Postemergence herbicidal rating GLXMAW (GLXMAW Soybean, Williams; 0.062 kg/ha): 7.0
ECHCG herbicidal rating (ECHOG Barnyardgrass; rate 0.016 kg/ha): 4.0
ECHCG herbicidal rating (ECHOG Barnyardgrass; rate 0.032 kg/ha): 2.0
ECHCG herbicidal rating (ECHOG Barnyardgrass; rate 0.062 kg/ha): 5.0
ECHCG herbicidal rating (ECHOG Barnyardgrass; rate 0.125 kg/ha): 7.5
TRZAWR herbicidal rating ([2]; rate 0.016 kg/ha): 1.0
TRZAWR herbicidal rating ([2]; rate 0.032 kg/ha): 1.0
TRZAWR herbicidal rating ([2]; rate 0.062 kg/ha): 1.0
TRZAWR herbicidal rating ([2]; rate 0.125 kg/ha): 3.0
Postemergence herbicidal rating TRZAWR ([3]; 0.008 kg/ha): 5.0
Postemergence herbicidal rating TRZAWR ([3]; 0.016 kg/ha): 5.0
Postemergence herbicidal rating TRZAWR ([3]; 0.032 kg/ha): 7.0
Postemergence herbicidal rating TRZAWR ([3]; 0.062 kg/ha): 8.0
Postemergence herbicidal rating ABUTH (ABUTH Velvetleaf; 0.008 kg/ha): 9.0
Postemergence herbicidal rating ABUTH (ABUTH Velvetleaf; 0.016 kg/ha): 9.0
Postemergence herbicidal rating ABUTH (ABUTH Velvetleaf; 0.032 kg/ha): 9.0
Postemergence herbicidal rating ABUTH (ABUTH Velvetleaf; 0.062 kg/ha): 9.0
Postemergence herbicidal rating ZEAMX (ZEAMX Corn, Field; 0.008 kg/ha): 7.0
Postemergence herbicidal rating ZEAMX (ZEAMX Corn, Field; 0.016 kg/ha): 7.5
Postemergence herbicidal rating ZEAMX (ZEAMX Corn, Field; 0.032 kg/ha): 8.5
Postemergence herbicidal rating ZEAMX (ZEAMX Corn, Field; 0.062 kg/ha): 9.0
CASOB herbicidal rating (CASOB Sicklepod; rate 0.032 kg/ha): 2.0
CASOB herbicidal rating (CASOB Sicklepod; rate 0.062 kg/ha): 2.5
CASOB herbicidal rating (CASOB Sicklepod; rate 0.125 kg/ha): 6.0
